T/C data for 21 compounds are collected here from PubChem BioAssay AID330 (DTP/NCI, 2004).

Several values for one entry are separate records, joined by “and”; a condition that tells them apart may be missing. Identical values can stand only once. Toxic doses and inconclusive results are not listed.

This assay relates to P388 leukemia ip, CD2F1 mice, survival T/C. The assay is described as follows: NCI In Vivo Anticancer Drug Screen. Data for tumor model P388 Leukemia (intraperitoneal) in CD2F1 (CDF1) mice. Conditions: endpoint: median survival time, higher = longer survival. The procedure, abridged:
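Mice carrying the transplanted tumor received test compound or vehicle. Survival was recorded in each group, and the value is the treated-group measurement divided by that of the vehicle-treated control group.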

[1] abbreviates: dose: 50.0 mg/kg/injection, schedule: Q01DX005 (ip), vehicle: saline.
Where [2] appears, read: dose: 50.0 mg/kg/injection, schedule: Q01DX009 (ip), vehicle: Klucel (hydroxypropylcellulose) (HPC).
Where [3] appears, read: dose: 3.13 mg/kg/injection, schedule: Q01DX009 (ip), vehicle: saline with Tween-80.
Setting [4] is: dose: 6.25 mg/kg/injection, schedule: Q01DX009 (ip), vehicle: saline with Tween-80.
The mark [5] stands for this setting: dose: 12.5 mg/kg/injection, schedule: Q01DX009 (ip), vehicle: saline with Tween-80.
[6] abbreviates: dose: 100.0 mg/kg/injection, schedule: Q01DX009 (ip), vehicle: Klucel (hydroxypropylcellulose) (HPC).
Where [7] appears, read: dose: 200.0 mg/kg/injection, schedule: Q01DX009 (ip), vehicle: Klucel (hydroxypropylcellulose) (HPC).
The mark [8] stands for this setting: dose: 60.0 mg/kg/injection, schedule: Q01DX005 (ip), vehicle: Klucel (hydroxypropylcellulose) (HPC).
[9] abbreviates: dose: 120.0 mg/kg/injection, schedule: Q01DX005 (ip), vehicle: Klucel (hydroxypropylcellulose) (HPC).
[10] abbreviates: dose: 240.0 mg/kg/injection, schedule: Q01DX005 (ip), vehicle: Klucel (hydroxypropylcellulose) (HPC).
Where [11] appears, read: dose: 50.0 mg/kg/injection, schedule: Q01DX009 (ip), vehicle: saline with Tween-80.
Setting [12] is: dose: 100.0 mg/kg/injection, schedule: Q01DX009 (ip), vehicle: saline with Tween-80.
Setting [13] is: dose: 200.0 mg/kg/injection, schedule: Q01DX009 (ip), vehicle: saline with Tween-80.
The mark [14] stands for this setting: dose: 100.0 mg/kg/injection, schedule: Q01DX005 (ip), vehicle: saline.
Setting [15] is: dose: 25.0 mg/kg/injection, schedule: Q01DX009 (ip), vehicle: saline with Tween-80.

Turning to `CCCCCCCCCCCCC1=C(O)C(=O)C=C(O)C1=O`, the T/C was 102 % of control (dose: 12.5 mg/kg/injection, schedule: Q01DX005 (ip), vehicle: suspension in saline); 108 % of control (dose: 25.0 mg/kg/injection, schedule: Q01DX005 (ip), vehicle: suspension in saline); 99 % of control under setting [1]; 112 % of control (dose: 50.0 mg/kg/injection, schedule: Q01DX005 (ip), vehicle: suspension in saline).

Turning to `CN1CCC(C(c2ccccc2)c2ccccc2)C1` (stereo not given), the T/C (dose: 12.5 mg/kg/injection, schedule: Q01DX009 (ip), vehicle: Klucel (hydroxypropylcellulose) (HPC)) was 100 % of control; the T/C (dose: 25.0 mg/kg/injection, schedule: Q01DX009 (ip), vehicle: Klucel (hydroxypropylcellulose) (HPC)) is 102 % of control; the T/C under setting [2] is 105 % of control.

Turning to `CC1(C)COC(c2ccc(C(C)(C)C)cc2)=N1`, the T/C by setting is: under setting [3], 105 % of control; under setting [4], 105 % of control; under setting [5], 98 % of control.

`CC1=NNC(=O)C1`: the T/C reads like this: under setting [2], 86 % of control; under setting [6], 102 % of control; under setting [7], 94 % of control; (dose: 400.0 mg/kg/injection, schedule: Q01DX009 (ip), vehicle: Klucel (hydroxypropylcellulose) (HPC)) 106 % of control.

In the case of `N#CC1CCCC2OCC(c3ccccc3)N12` (stereo not given), the T/C is, setting by setting: under setting [8], 119 % of control; under setting [9], 119 % of control; under setting [10], 117 % of control.

As to `[O-]/[N+](=C\c1ccccc1)CC1(O)CCCCC1`, the T/C under setting [11] is 90 % of control, the T/C under setting [12] was 88 % of control and the T/C under setting [13] is 99 % of control.

For `OCCN1CCN(CCCN2c3cc(Cl)ccc3Sc3sccc32)CC1`, the T/C by setting is: (dose: 50.0 mg/kg/injection, schedule: Q01DX005 (ip), vehicle: Klucel (hydroxypropylcellulose) (HPC)) 92 % of control; under setting [1], 100 % of control; (dose: 100.0 mg/kg/injection, schedule: Q01DX005 (ip), vehicle: Klucel (hydroxypropylcellulose) (HPC)) 90 % of control; under setting [14], 106 % of control.

As for `O=C(O)c1ccccc1-c1ccccc1[N+](=O)[O-]`, the T/C runs as follows: (dose: 50.0 mg/kg/injection, schedule: Q01DX009 (ip), vehicle: saline) 88 % of control; (dose: 100.0 mg/kg/injection, schedule: Q01DX009 (ip), vehicle: saline) 97 % of control; (dose: 200.0 mg/kg/injection, schedule: Q01DX009 (ip), vehicle: saline) 97 % of control.

Consider `O=C(Nc1ccccc1C1=NCCN1)Nc1ccccc1C1=NCCN1`, for which the T/C under setting [1] is 100 % of control and the T/C under setting [14] is 106 % of control.

As to `CCOC(=O)C1NC(=O)C(C(=O)OCC)NC1=O` (stereo not given), the T/C by setting is: (dose: 50.0 mg/kg/injection, schedule: Q01DX005 (ip), vehicle: saline with Tween-80) 96 % of control; (dose: 100.0 mg/kg/injection, schedule: Q01DX005 (ip), vehicle: saline with Tween-80) 92 % of control; (dose: 200.0 mg/kg/injection, schedule: Q01DX005 (ip), vehicle: saline with Tween-80) 93 % of control.

For `OC1CC2CCC(C1)N2c1ccccc1` (stereo not given), the T/C was 115 % of control under setting [1] and 97 % of control under setting [14].

In the case of `O=C(/C=C/c1ccccc1)n1nnc2cc(Cl)c(Cl)cc21`, the T/C under setting [5] was 92 % of control; the T/C under setting [15] was 115 % of control; the T/C under setting [11] was 92 % of control; the T/C under setting [12] was 99 % of control; the T/C under setting [13] was 96 % of control.

On to `CCC[CH2][Sn]1([CH2]CCC)[O]OC(c2ccc(C)cc2)[O]1` (stereo not given), for which the T/C (dose: 0.19 mg/kg/injection, schedule: Q01DX009 (ip), vehicle: saline with Tween-80) is 102 % of control; the T/C (dose: 0.38 mg/kg/injection, schedule: Q01DX009 (ip), vehicle: saline with Tween-80) was 94 % of control; the T/C (dose: 0.75 mg/kg/injection, schedule: Q01DX009 (ip), vehicle: saline with Tween-80) was 116 % of control.

`CCCN=C(N)c1ccc(NC(=O)c2ccc(C(=O)Nc3ccc(C(N)=NCCC)cc3)cc2)cc1`: the T/C is, setting by setting: (dose: 6.25 mg/kg/injection, schedule: Q04DX003 (ip), vehicle: saline with Tween-80) 154 % of control; (dose: 12.5 mg/kg/injection, schedule: Q04DX003 (ip), vehicle: saline with Tween-80) 163 % of control; under setting [15], 122 % of control; (dose: 25.0 mg/kg/injection, schedule: Q04DX003 (ip), vehicle: saline with Tween-80) 154 % of control; under setting [11], 90 % of control; (dose: 50.0 mg/kg/injection, schedule: Q04DX003 (ip), vehicle: saline with Tween-80) 213 % of control. Moreover, the T/C (dose: 100.0 mg/kg/injection, schedule: Q04DX003 (ip), vehicle: saline with Tween-80) is 100 % of control.

`CCOC(=O)C1=NN(C)C(=O)C1`: the T/C was 99 % of control (dose: 100.0 mg/kg/injection, schedule: Q01DX001 (ip), vehicle: saline with Tween-80); 115 % of control (dose: 200.0 mg/kg/injection, schedule: Q01DX001 (ip), vehicle: saline with Tween-80); 104 % of control (dose: 400.0 mg/kg/injection, schedule: Q01DX001 (ip), vehicle: saline with Tween-80).

As for `CSc1ccccc1N1C(=O)CSC1=S`, the T/C runs as follows: under setting [2], 108 % of control; under setting [6], 96 % of control; under setting [7], 89 % of control.

Regarding `COc1ccccc1CC(N)c1nn[nH]n1` (stereo not given), the T/C is 96 % of control under setting [15]; 98 % of control and 99 % of control and 101 % of control under setting [11]; 104 % of control and 89 % of control and 96 % of control under setting [12]; 91 % of control and 97 % of control under setting [13]; 96 % of control (dose: 400.0 mg/kg/injection, schedule: Q01DX009 (ip), vehicle: saline with Tween-80).

Consider `c1ccc2c(c1)C1=NCCN1c1ccccc1-2`, for which the T/C is 109 % of control (dose: 12.0 mg/kg/injection, schedule: Q01DX009 (ip), vehicle: saline with Tween-80); 88 % of control (dose: 12.0 mg/kg/injection, schedule: Q01DX009 (ip), vehicle: saline); 113 % of control (dose: 18.0 mg/kg/injection, schedule: Q01DX009 (ip), vehicle: saline with Tween-80); 105 % of control (dose: 18.0 mg/kg/injection, schedule: Q01DX009 (ip), vehicle: saline); 118 % of control (dose: 27.0 mg/kg/injection, schedule: Q01DX009 (ip), vehicle: saline with Tween-80); 111 % of control (dose: 27.0 mg/kg/injection, schedule: Q01DX009 (ip), vehicle: saline). For the same compound, the T/C (dose: 40.0 mg/kg/injection, schedule: Q01DX009 (ip), vehicle: saline with Tween-80) is 122 % of control.

Consider `C/C(=N\NC(=S)N1CCCCCC1)c1ccccn1`, for which the T/C is 99 % of control and 96 % of control (dose: 0.78 mg/kg/injection, schedule: Q01DX009 (ip), vehicle: saline with Tween-80); 99 % of control and 103 % of control (dose: 1.56 mg/kg/injection, schedule: Q01DX009 (ip), vehicle: saline with Tween-80); 90 % of control (dose: 3.12 mg/kg/injection, schedule: Q01DX009 (ip), vehicle: saline with Tween-80); 121 % of control and 95 % of control under setting [3]; 100 % of control and 112 % of control and 117 % of control under setting [4]; 103 % of control under setting [5].

Regarding `O=C1NNC=Nc2nc3c(cc21)CCCC3`, the T/C was 98 % of control under setting [8], 92 % of control under setting [9] and 94 % of control under setting [10].

With `CCCC1C/C=C/C=C/C=C/C=C/C(OC2OC(C)C(O)C(N)C2O)CC(O)C(C(=O)O)C(O)CC(=O)CC(O)CCCC(=O)CC(O)C(CC)C(=O)O1` (stereo not given), the T/C was 94 % of control (dose: 2.5 mg/kg/injection, schedule: Q01DX009 (ip), vehicle: Klucel (hydroxypropylcellulose) (HPC)); 106 % of control (dose: 5.0 mg/kg/injection, schedule: Q01DX009 (ip), vehicle: Klucel (hydroxypropylcellulose) (HPC)); 92 % of control (dose: 10.0 mg/kg/injection, schedule: Q01DX009 (ip), vehicle: Klucel (hydroxypropylcellulose) (HPC)); 87 % of control (dose: 20.0 mg/kg/injection, schedule: Q01DX009 (ip), vehicle: Klucel (hydroxypropylcellulose) (HPC)).
